What all share (format): in vivo
Data set [1] deals with KKAy mice. Kind of data set: Casual blood glucose level before and after drug administration in KKAy mice. The conditions noted are these: male KKAy mice; for Casual blood glucose level, After administration: about 18 hours after final administration; for Casual blood glucose level, After administration / Casual blood glucose level, Before administration: mean ± standard error; for Casual blood glucose level, Before administration: baseline, day before start of dosing. The source says: (§1) For the experiment, male KKAy mice (CLEA Japan, Inc.) were used. KKAy mice show obesity and high blood glucose from 7 or 8 weeks old, and are commonly used as model mice for type 2 diabetes. The KKAy mice were purchased when they were 5 weeks old, and, from immediately thereafter, fed with CMF feed (Oriental Yeast Co., Ltd.) for 3 weeks under free food/water intake conditions, before being subjected to the experiment. For continuous subcutaneous administration of a solvent (physiological saline, 6 μL/day) or BPS (1 mg/kg/day, commercially available product from Toray Industries, Inc.), a minipump for sustained release (Alzet micro osmotic pump model 1002, Alzet osmotic pumps company) was subcutaneously placed in each KKAy mouse. The continuous administration of physiological saline or BPS was carried out until the end of the experiment. From 3 days after the placement (beginning of the subcutaneous continuous administration), oral administration of a solvent (0.5% methyl cellulose (MC) solution, 10 mL/kg) or pioglitazone hydrochloride (product synthesized in Toray Industries, Inc.) was started. Pioglitazone hydrochloride was administered as a suspension in 0.5% MC solution. The 0.5% MC solution and pioglitazone hydrochloride were administered for 10 days, during which the administration was carried out once per day in the evening. The mice were divided into the following experimental groups: • (1) Control group (n=8): physiological saline (6 μL/day)+0.5% MC solution (10 mL/kg) • (2) BPS group (n=6): BPS (1 mg/kg/day)+0.5% MC solution (10 mL/kg) • (3) Pioglitazone hydrochloride 3 mg group (n=6): physiological saline (6 μL/day)+pioglitazone hydrochloride (3 mg/kg) • (4) BPS/pioglitazone hydrochloride 3 mg-combined-use group (n=6): BPS (1 mg/kg/day)+pioglitazone hydrochloride (3 mg/kg) • (5) Pioglitazone hydrochloride 30 mg group (n=6): physiological saline (6 μL/day)+pioglitazone hydrochloride (30 mg/kg).
(§2) The body weight and the casual blood glucose level were measured on the day before starting of the continuous administration of physiological saline or BPS (these correspond to the data shown in the “Before administration” columns in Tables 1 and 2). The body weight was measured when 0.5% MC solution or pioglitazone hydrochloride was finally administered, and the casual blood glucose level was measured about 18 hours after the final administration (these correspond to the data shown in the “After administration” columns in Tables 1 and 2). The casual blood glucose level was measured by collecting about 5 μL of blood from the tail vein and subjecting the blood to measurement with a simplified blood glucose meter (Medisense Precision Xceed, ABBOTT JAPAN Co., LTD.).

The nature of data set [2]: Body weight before and after drug administration in KKAy mice. The conditions noted are these: male KKAy mice; for Body weight, After administration: at final administration; for Body weight, After administration / Body weight, Before administration: mean ± standard error; for Body weight, Before administration: baseline, day before start of dosing; for Change in body weight compared to the value before drug administration: paired t-test.
Excerpt: as §1, §2

In data set [3] the test system is KKAy mice. Kind of data set: Glucose tolerance test after drug administration in KKAy mice. The conditions noted are these: male KKAy mice; for ΔAUC0-120 (area under the Δblood glucose level-time curve, 0 to 120 minutes): oral glucose 1.5 g/kg after fasting, mean ± standard error, in mg·min/dL (unit assumed). As for the experimental part:
For the experiment, male KKAy mice (CLEA Japan, Inc.) were used. […] Pioglitazone hydrochloride was administered as a suspension in 0.5% MC solution. […] The continuous administration of physiological saline or BPS was carried out until the end of the experiment. The experimental groups were as follows: • (1) Control group (n=6): physiological saline (6 μL/day)+0.5% MC solution (10 mL/kg) • (2) BPS group (n=5): BPS (1 mg/kg/day)+0.5% MC solution (10 mL/kg) • (3) Pioglitazone hydrochloride 3 mg group (n=5): physiological saline (6 μL/day)+pioglitazone hydrochloride (3 mg/kg) • (4) BPS/pioglitazone hydrochloride 3 mg-combined-use group (n=6): BPS (1 mg/kg/day)+pioglitazone hydrochloride (3 mg/kg) • (5) Pioglitazone hydrochloride 30 mg group (n=6): physiological saline (6 μL/day)+pioglitazone hydrochloride (30 mg/kg). […] The increase in the blood glucose level at each timing relative to the blood glucose level observed immediately before the administration of glucose (0 minute) was defined as Δblood glucose level. The length of time (minutes) after the administration of glucose was plotted along the abscissa and Δblood glucose level (mg/dL) was plotted along the ordinate, to calculate the area under the Δblood glucose level-time curve from 0 minute to 120 minutes (ΔAUC0-120).

Where [4] appears, read: BPS 1 mg/kg/day s.c. continuous and/or pioglitazone hydrochloride 3 mg/kg p.o. once daily 10 days.
[5] abbreviates: groups BPS 1 mg/kg/day s.c. continuous and/or pioglitazone hydrochloride 3 mg/kg p.o.
Where [6] appears, read: BPS 1 mg/kg/day s.c. continuous and/or pioglitazone hydrochloride 3 mg/kg p.o. once daily 20 days.
[7] abbreviates: pioglitazone hydrochloride 30 mg/kg group.
[8] abbreviates: pioglitazone hydrochloride 30 mg/kg p.o. once daily 10 days.

Molecules are shown by their SMILES. Structures can show the parent of a compound that is named as a salt.

These results are taken from patent publication US9492422B2, “Therapeutic or prophylactic agent for diabetes” (Toray Industries, Inc., priority 2009, dated 2016).

For the compound `CC#CCC(C)[C@H](O)/C=C/[C@@H]1[C@H]2c3cccc(CCCC(=O)O)c3O[C@H]2C[C@H]1O` (mixture of isomers) [BPS, beraprost sodium], the “Change in casual blood glucose level compared to the value before drug administration” value in the data set on KKAy mice [1] (BPS 1 mg/kg/day s.c. and/or pioglitazone hydrochloride 3 mg/kg p.o., paired t-test) is on record as “no change”. Further, the “Casual blood glucose level, After administration” value with KKAy mice [1] (setting [4]) is 392.3 ± 28.9 mg/dL. Moreover, the “Casual blood glucose level, Before administration” value in the data set with KKAy mice [1] (setting [5]) is listed as 493.0 ± 35.6 mg/dL. The “Body weight, After administration” value in data set [2] (setting [4]) is recorded as 42.3 ± 1.1 g. For the same compound, the “Body weight, Before administration” value in data set [2] (setting [5]) worked out at 41.2 ± 0.8 g. For the same compound, the “Change in ΔAUC0-120 compared to the control group” value with KKAy mice [3] (glucose tolerance test, BPS 1 mg/kg/day s.c. and/or pioglitazone hydrochloride 3 mg/kg p.o.) was “no change”. For the same compound, the “ΔAUC0-120 (area under the Δblood glucose level-time curve, 0 to 120 minutes)” value in the data set on KKAy mice [3] (setting [6]) worked out at 18684 ± 3551.
As for `CCc1ccc(CCOc2ccc(CC3SC(=O)NC3=O)cc2)nc1` (stereo not shown) [Pioglitazone hydrochloride, pioglitazone hydrochloride], the figures for the “Casual blood glucose level, After administration” value with KKAy mice [1] (setting [4]) and with KKAy mice [1] (setting [8]) were 452.8 ± 53.4 mg/dL and 271.3 ± 16.9 mg/dL, respectively. Further, the figures for the “Casual blood glucose level, Before administration” value in the data set on KKAy mice [1] (setting [5]) and in the data set with KKAy mice [1] (setting [7]) were 450.3 ± 15.4 mg/dL and 437.7 ± 21.7 mg/dL, respectively. Further, the “Change in body weight compared to the value before drug administration” value in data set [2] (BPS 1 mg/kg/day s.c. and/or pioglitazone hydrochloride 3 mg/kg p.o.) and in data set [2] (pioglitazone hydrochloride 30 mg/kg p.o.) was “significant increase” each time. Besides, the “Body weight, After administration” value in data set [2] (setting [4]) was found to be 44.2 ± 1.3 g; in data set [2] (setting [8]), 46.7 ± 1.3 g. Moreover, the entries for the “Body weight, Before administration” value in data set [2] (setting [5]) and in data set [2] (setting [7]) were 41.7 ± 1.2 g and 42.6 ± 1.1 g, respectively. Moreover, the “ΔAUC0-120 (area under the Δblood glucose level-time curve, 0 to 120 minutes)” value stood at 23138 ± 4870 in the data set with KKAy mice [3] (setting [6]) and 22461 ± 2157 with KKAy mice [3] (pioglitazone hydrochloride 30 mg/kg p.o. once daily 20 days).
